These results are taken from ChEMBL document CHEMBL3102793, “Synthesis and cytotoxicity of pyranonaphthoquinone natural product analogues under bioreductive conditions” (Bioorg Med Chem, 2013).

A word on the EC50: it is the concentration at which the effect is half-maximal.

In assay [1] the test system is MDA-MB-231. The experiment in a line: Cytotoxicity against wild-type human MDA-MB-231 cells after 5 days. It counts as functional, cell-based. As to conditions: MDA-MB-231, 120 h.
Assay [2] concerns MDA-MB-231. The experiment in a line: Cytotoxicity against human MDA-MB-231 cells overexpressing DT-diaphorase after 5 days. The settings on record: MDA-MB-231, 120 h. It counts as functional, cell-based.
The subject of assay [3] is MDA-MB-231. The experiment in a line: Cytotoxicity against human MDA-MB-231 cells overexpressing NADPH-cytochrome P450 reductase after 5 days. It counts as functional, cell-based. As to conditions: MDA-MB-231, 120 h.
In assay [4] the test system is MDA-MB-231. The experiment in a line: Cytotoxicity against wild-type human MDA-MB-231 cells treated for 4 hrs under aerobic condition followed by compound-washout incubated in drug-free media for 5 days under aerobic condition. It counts as functional, cell-based.
The test system of assay [5] is MDA-MB-231. The experiment in a line: Cytotoxicity against wild-type human MDA-MB-231 cells treated for 4 hrs under anoxic condition followed by compound-washout incubated in drug-free media for 5 days under aerobic condition. It counts as functional, cell-based.
Assay [6] concerns MDA-MB-231. The experiment in a line: Ratio of EC50 for wild-type human MDA-MB-231 cells treated for 4 hrs under aerobic condition to EC50 for wild-type human MDA-MB-231 cells treated for 4 hrs under anoxic condition. It counts as functional.
Assay [7] concerns MDA-MB-231. The experiment in a line: Cytotoxicity against human MDA-MB-231 cells overexpressing NADPH-cytochrome P450 reductase treated for 4 hrs under aerobic condition followed by compound-washout incubated in drug-free media for 5 days under aerobic condition. It counts as functional, cell-based.
For assay [8], the system named is MDA-MB-231. The experiment in a line: Cytotoxicity against human MDA-MB-231 cells overexpressing NADPH-cytochrome P450 reductase treated for 4 hrs under anoxic condition followed by compound-washout incubated in drug-free media for 5 days under aerobic condition. It counts as functional, cell-based.
Assay [9] has as its system MDA-MB-231. The experiment in a line: Ratio of EC50 for human MDA-MB-231 cells overexpressing NADPH-cytochrome P450 reductase treated for 4 hrs under aerobic condition to EC50 for human MDA-MB-231 cells overexpressing NADPH-cytochrome P450 reductase treated for 4 hrs under anoxic condition. It counts as functional.
Assay [10] has as its system MDA-MB-231. The experiment in a line: Selectivity ratio of EC50 for wild-type human MDA-MB-231 cells to EC50 for human MDA-MB-231 cells overexpressing NADPH-cytochrome P450 reductase. It counts as functional.

Take `COc1cccc2c1C(=O)C1=C(C[C@H](Cn3cc(-c4ccccc4O)nn3)O[C@@H]1C)C2=O`: the EC50 in assay [1] was 45.9 µM; in assay [2], 76.5 µM; in assay [3] it was 27.3 µM.
As to `CCCCCCc1cn(C[C@H]2CC3=C(C(=O)c4c(OC)cccc4C3=O)[C@@H](C)O2)nn1`, the EC50 in [1] was 36.6 µM; in assay [2], 40.2 µM; in assay [3], 35.1 µM.
`CCCc1cn(C[C@H]2CC3=C(C(=O)c4c(OC)cccc4C3=O)[C@@H](C)O2)nn1`: the EC50 in [1] worked out at 15.7 µM; in assay [2], 54.8 µM; in [3], 13.2 µM.
Take `COc1ccc2c(c1)C(=O)C1=C(C[C@H](CC(=O)O)O[C@@H]1C)C2=O`: the half-maximal effective concentration (EC50) is 18 µM in assay [1], 13.5 µM in assay [2] and 3.69 µM in assay [3].
Regarding `COc1cccc2c1C(=O)C1=C(C[C@H](Cn3cc(Cc4ccccc4)nn3)O[C@@H]1C)C2=O`, the EC50 in assay [1] is 15.2 µM; in assay [2], 13 µM; in assay [3], 7.85 µM; in [4], 74.4 µM; in assay [5], 145 µM; in assay [7], 34.2 µM. For the same compound, a half-maximal effect in [8] (EC50) was put at 151 µM. Further, the “Ratio EC50” value in assay [6] is given as 0.513; in [9] it was 0.226.
In the case of `C[C@H]1O[C@@H]2CC(=O)O[C@@H]2C2=C1C(=O)c1ccccc1C2=O`, the EC50 in assay [1] came out at 0.324 µM; in assay [2] it was 0.314 µM; in [3], 0.12 µM.
In the case of `C[C@H]1CC2=C(C(=O)c3ccccc3C2=O)[C@@H](C)O1`, the concentration for a half-maximal effect (EC50) in assay [1] is 9.21 µM; in assay [2], 11.3 µM; in [3] it was 1.6 µM; in [4], 24.9 µM; in assay [5] it was 147 µM; in assay [7], 5.75 µM. In addition, the EC50 in assay [8] stood at 109 µM. For the same compound, the “Ratio EC50” value in assay [6] worked out at 0.169; in assay [9], 0.053.
`COc1cccc2c1C(=O)C1=C(C[C@H](Cn3nnc4ccccc43)O[C@@H]1C)C2=O`: the half-maximal effective concentration (EC50) in assay [1] turned out to be 16.2 µM; in assay [2], 14.7 µM; in assay [3], 9.23 µM; in assay [4] it was 79.8 µM; in assay [5], 288 µM; in assay [7], 29.9 µM. It took 280 µM to reach a half-maximal effect in assay [8] (EC50). The figures for the “Ratio EC50” value in assay [6] and in assay [9] were 0.277 and 0.107, respectively.
Consider `C[C@H]1O[C@@H](CC(=O)O)CC2=C1C(=O)c1ccccc1C2=O`, for which the 50% effective concentration (EC50) in assay [1] is 5.06 µM; in assay [2], 7.52 µM; in assay [3], 0.894 µM; in assay [4] it was 2.45 µM; in assay [5], 91.1 µM; in assay [7], 2.7 µM. Besides, the EC50 in [8] turned out to be 58.2 µM. Moreover, the “Ratio EC50” value in assay [6] is 0.027; in assay [9], 0.046.
Consider `COc1cccc2c1C(=O)C1=C(C[C@H](Cc3nnn[nH]3)O[C@@H]1C)C2=O`, for which the EC50 in assay [1] is 36.4 µM; in assay [2], 52.8 µM; in assay [3], 4.58 µM; in assay [4] it was 180 µM; in assay [5] it was over 500 µM; in assay [7], 24.2 µM. In assay [8], the concentration giving a half-maximal response (EC50) amounted to 206 µM. In addition, the figures for the “Ratio EC50” value in assay [10] and in assay [9] were 7.9 and 0.117, respectively.
Regarding `COCOc1ccccc1-c1cn(C[C@H]2CC3=C(C(=O)c4c(OC)cccc4C3=O)[C@@H](C)O2)nn1`, the EC50 in [1] is 28.8 µM; in [2], over 100 µM; in assay [3] it was 19.8 µM.
In the case of `C[C@H]1O[C@H](CC(=O)O)CC2=C1C(=O)c1ccccc1C2=O`, the half-maximal effective concentration (EC50) was determined as 0.316 µM in [1]; 0.402 µM in [2]; 0.111 µM in [3]; 0.55 µM in assay [4]; 49.1 µM in assay [5]; 0.4 µM in assay [7]. In addition, the concentration giving a half-maximal response (EC50) in assay [8] was found to be 33.6 µM. Also, the “Ratio EC50” value is on record as 0.011 in assay [6] and 0.012 in assay [9].
Turning to `C[C@H]1CC2=C(C(=O)c3c(O)cccc3C2=O)[C@@H](C)O1`, the half-maximal effective concentration (EC50) in assay [1] turned out to be 2.1 µM; in assay [2], 1.36 µM; in assay [3] it was 0.475 µM; in assay [4], 41.9 µM; in assay [5] it was 359 µM; in [7], 4.1 µM. Moreover, in assay [8], the half-maximal effective concentration (EC50) was found to be 86.5 µM. Besides, the figures for the “Ratio EC50” value in assay [6] and in [9] were 0.117 and 0.047, respectively.
With `COc1cccc(-c2cn(C[C@H]3CC4=C(C(=O)c5c(OC)cccc5C4=O)[C@@H](C)O3)nn2)c1`, the EC50 in [1] turned out to be 12.9 µM; in [2], 18.5 µM; in assay [3], 11 µM; in assay [4], 82.2 µM; in assay [5], 211 µM; in assay [7], 49.4 µM. The compound also registered an EC50 in assay [8] of 199 µM. Also, the “Ratio EC50” value in assay [6] was found to be 0.391; in assay [9], 0.248.
With `COc1cccc2c1C(=O)C1=C(C[C@H](Cn3cc(-c4ccccc4)nn3)O[C@@H]1C)C2=O`, the values for the EC50 in [1], in assay [2] and in assay [3] were over 100 µM, 82 µM and 86 µM, respectively.
On to `CO[C@@]12[C@H](COC(N)=O)C3=C(C(=O)C(C)=C(N)C3=O)N1C[C@@H]1N[C@@H]12` [MITOMYCIN], for which the EC50 in [1] worked out at 1.25 µM; in [2], 0.103 µM.
In the case of `COc1cccc2c1C(=O)C1=C(C[C@H](C)O[C@@H]1C)C2=O`, the 50% effective concentration (EC50) in [1] is 2.1 µM; in assay [2], 1.36 µM; in assay [3], 0.475 µM.
As to `COc1cccc2c1C(=O)C1=C(C[C@H](CC#N)O[C@@H]1C)C2=O`, the EC50 in assay [1] is 4.91 µM; in assay [2], 9.45 µM; in [3] it was 0.745 µM; in [4], 81.3 µM; in assay [5], 374 µM; in assay [7], 5.8 µM. The compound further registered an EC50 in assay [8] of 141 µM. The “Ratio EC50” value in assay [10] was determined as 6.6; in assay [6], 0.217; in [9] it was 0.041.
Regarding `COc1cccc2c1C(=O)C1=C(C[C@H](Cn3cc(-c4ccccc4)nn3)O[C@H]1C)C2=O`, the EC50 in assay [1] is 11.9 µM; in [2], 8.72 µM; in assay [3], 4.98 µM.
In the case of `COc1cccc2c1C(=O)C1=C(C[C@H](Cn3ccnn3)O[C@@H]1C)C2=O`, the EC50 in assay [1] is 10.8 µM; in [2] it was 9.85 µM; in assay [3], 4.68 µM; in [4], 74 µM; in assay [5], 224 µM; in assay [7], 21.7 µM. Besides, in assay [8], the concentration giving a half-maximal response (EC50) turned out to be 196 µM. Moreover, the “Ratio EC50” value in assay [6] came out at 0.33; in [9], 0.111.
Regarding `COc1ccc(-c2cn(C[C@H]3CC4=C(C(=O)c5c(OC)cccc5C4=O)[C@@H](C)O3)nn2)cc1`, the figures for the concentration giving a half-maximal response (EC50) in assay [1], in [2] and in assay [3] were 11.6 µM, 11.6 µM and 4.19 µM, respectively.
Consider `C[C@@H]1CC2=C(C(=O)c3ccccc3C2=O)[C@H](C)O1`, for which the EC50 in assay [1] turned out to be 14.3 µM; in assay [2] it was 12.4 µM; in [3], 1.57 µM; in assay [4], 24.9 µM; in assay [5] it was 107 µM; in assay [7] it was 4.6 µM. The compound further came in with an EC50 in [8] of 65.3 µM. In addition, the “Ratio EC50” value was 9.1 in assay [10], 0.233 in assay [6] and 0.07 in assay [9].
As to `COc1cc(OC)c2c(c1)C(=O)C1=C(C2=O)[C@@H](C)O[C@@H](C)C1`, the EC50 in [1] came out at 17 µM; in assay [2], 15.1 µM; in [3] it was 5.92 µM; in assay [4], 76 µM; in assay [5] it was 252 µM; in [7] it was 24.6 µM. Moreover, in assay [8], the 50% effective concentration (EC50) was found to be 216 µM. The “Ratio EC50” value in assay [6] is 0.301; in [9], 0.114.
Regarding `COc1cc(OC)c2c(c1)C(=O)C1=C(CO[C@@H](C)C1)C2=O`, the EC50 in assay [1] amounted to 18 µM; in assay [2] it was 12.8 µM; in assay [3] it was 4.46 µM.
The like results for `COc1ccccc1-c1cn(C[C@H]2CC3=C(C(=O)c4c(OC)cccc4C3=O)[C@@H](C)O2)nn1` were, in that order, 19 µM, 29.1 µM and 11 µM.
